Where no end group is shown, it is not given here. [ ]: non-standard residue; d: D form.
Legend:
[1] = tested on: extinction of conditioned flight behaviour; settings: cited from earlier work; for retardation of the extinction of conditioned flight behaviour: European Journal of Pharmacology 2, 14 (1967)
[2] = tested on: extinction of conditioned flight behaviour; assay: inhibition (retardation) of the extinction of conditioned flight behaviour; psychopharmacological activity; format: in vivo; settings: for Potency Ratio with Respect to 4-10 ACTH: 4-10 ACTH = 1
Source text: This invention relates to the field of pharmaceutical compounds, and to the sub-field of psychopharmacologically active compounds. The compounds in question show an inhibition of the extinction of conditioned flight behaviour, as a result of which they are eminently suitable for the treatment of mental disorders in which a stimulation of the cerebral function is desired, such as in case of senility. The invention further relates to pharmaceutical compositions containing these peptide compounds or their derivatives where the latter are an active constituent.

Substance | Potency Ratio with Respect to 4-10 ACTH ([2]; Table I) | Potency Ratio with Respect to 4-10 ACTH ([2]; Table II) | further results
4-10 ACTH: the peptide containing the amino-acid sequence 4-10 from ACTH (MEHFRWG; Corticotropin; UniProt P01189 141-147, looked up, fragment) |  |  | retardation of the extinction of conditioned flight behaviour [1]: as active as ACTH itself
F[dK]FGKPVGKK | 100 | 100 | 
F[dK]FGKPVGK |  | 1 | 
Phe-Arg-Trp [7-9 ACTH] | 0.1 |  | 
H-L-Met (→ O)-L-Glu-L-His-L-Phe-D-Lys-L-Phe-OH |  |  | activity relative to the unchanged 4-9 ACTH ([1]; psychopharmacological activity, peptide of the earlier U.S. patents): about 1000 times
Phe-[dK]-Phe | 0.1 |  | psychopharmacological activity (in words) ([2]; in vivo): some psychopharmacological activity, although in a latent form
FRWGKPVGKK [7-16 ACTH] | 1 | 1 | 
ACTH: natural adrenocorticotropic hormone (SYSMEHFRWGKPVGKKRRPVKVYPNGAEDESAEAFPLEF; Corticotropin; UniProt P01189 138-176, looked up) |  |  | retardation of the extinction of conditioned flight behaviour [1]: retard the extinction
F[dK]FG[dK]PVGKK |  | 10,000 | 

Reference: patent US4110322A, “Peptide derivatives and pharmaceutical compositions containing same” (Akzona Incorporated, priority 1976, dated 1978)
